According to patent publication US7585859B2, “PDE4B inhibitors and uses therefor” (Plexxikon, Inc., priority 2004, dated 2009):

Tests used:
[1] = molecular target: T1, PDE4B: The catalytic domain of human PDE4B from S152-S528 (Homo sapiens, UniProt Q07343); experiment: PDE4 IC50 determination by Scintillation Proximity Assay, PDE4B; assay type: biochemical; conditions: Table 1B, Formula I compounds; read-out: IC50 PDE4B
T1 construct: His6 (N); thrombin cleavage site (N); made in house; host or cells: E. coli
Summary of the method: (§1)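 Radiometric SPA: PDE4B (80 ng/ml) or PDE4D (4 ng/ml) hydrolysed [^3H]cAMP over 30 min at 30°, and the bead-bound [^3H]AMP was scintillation-counted.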

[2] = molecular target: T2, PDE4D (Homo sapiens, UniProt Q08499); experiment: PDE4 IC50 determination by Scintillation Proximity Assay, PDE4D; assay type: biochemical; conditions: Table 1B, Formula I compounds; read-out: IC50 PDE4D
T2 construct: PDE4D: The catalytic domain of human PDE4B from S3 16-V692; His6 (N); thrombin cleavage site (N); made in house; host or cells: E. coli
Summary of the method: as §1

[3] = molecular target: T3, full-length human PDE4B2 isozyme (Homo sapiens, UniProt Q07343); experiment: PDE4 IC50 determination by Scintillation Proximity Assay, PDE4B2; assay type: biochemical; conditions: Table 1B, Formula I compounds; read-out: IC50 PDE4B2
T3 construct: The full-length human PDE4B2 isozyme; His6 (N); TEV cleavage site (N); made in house; host or cells: baculovirus infected insect cells (unpurified lysate)
Summary of the method: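 Unpurified His6-TEV-tagged full-length human PDE4B2 from baculovirus-infected insect cell lysate (2.5 μl of 50% glycerol stock/ml) hydrolysed [3H]cAMP in 50 mM Tris pH 7.5, 8.3 mM MgCl, 1.7 mM EGTA, 0.01% BSA for 30 min at 30°. Stopped with SPA beads in 18 mM ZnSO4; [3H]AMP scintillation counted, IC50 by non-linear regression.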

[4] = molecular target: T4, full-length human PDE4D5 isozyme (Homo sapiens, UniProt Q08499); experiment: PDE4 IC50 determination by Scintillation Proximity Assay, PDE4D5; assay type: biochemical; conditions: Table 1B, Formula I compounds; read-out: IC50 PDE4D5
T4 construct: The full-length human PDE4D5 isozyme; His6 (N); TEV cleavage site (N); made in house; host or cells: baculovirus infected insect cells (unpurified lysate)
Summary of the method: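 Unpurified His6-tagged full-length human PDE4D5 from baculovirus-infected insect cell lysate, 0.083 μl glycerol stock/ml, hydrolysed [3H]cAMP in Tris pH 7.5/MgCl/EGTA buffer, 30 min at 30°. ZnSO4/SPA beads stop; [3H]AMP counted. Controls: DMSO and roflumilast; 11-point duplicate curves, nonlinear-regression IC50.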

[5] = system: TNF alpha production in LPS-stimulated human blood (Buffy coat); experiment: TNF alpha production by stimulation with LPS in whole blood cultures; assay type: cell-based; conditions: Homo sapiens; Table 1B, Formula I compounds; read-out: IC50 h TNFα
Method: Compounds were assayed to generate IC50 numbers as described in Example 54, using the following assay protocol (see Tables 3B and 4B for compounds and results).
Protocol • 1) Obtained 20 mM DMSO aliquots of desired concentrations of compounds (see Tables 3B and 4B for compounds tested and results). Placed 2 μl/well compound in DMSO in the top row of the dilution plate. Added 98 μl of RPMI 1640 media w/2.5% heat inactivated FBS.
2) Made the same media with 2% DMSO in it. Added 60 μl/well to well to make compound titration. Took 30 μl of top row and did a 1:3 dilution down the plate. In column 11 added 4 wells of 50 μM roflumilast and piclamilast. In column 12 added 2% DMSO media.
3) Transfered 20 μl/well into assay plates in duplicate.
4) Obtained human Buffy coat.
5) Diluted blood with 7 volumes of RPMI 1640 media with 1% P/S and 2.5% heat inactivated FBS (a 1:8 dilution)
6) Added160 μl/well of diluted blood to the assay plates.
7) Incubated for 1 hour at 37 degrees 5% CO2
8) Diluted LPS (which was already diluted to 1 mg/ml in PBS, 20 μl aliquots frozen −20 C.) to 10× desired final concentration to make a […] dilution (final concentration should be 100 ng/ml).
9) After 1 hour incubation added 20 μl/well of LPS to plates. A non-LPS treated background was also prepared. Samples were put on the shaker for a one minute 900 rpm.
10) Incubated for 4 hours in incubator.
11) After incubation, put on the shaker for a one minute 900 rpm and spun plate at 100 g for 10 minutes, Decel 5.
12) Carefully pipetted the top 75 μl supernatant into a new plate. Samples were frozen as needed.
Biosource hu-TNF ALPHA ELISA
• REAGENTS USED • DPBS 10×: VWR45000-428 (dilute 1:10 with Millipore Water) • TWEEN 20: FISHER BP337-500 • CAPTURE AND DETECTION ANTIBODIES: R&D DY510E • STREP-HRP: Biosource part SNN4004X • COLOR REAGENTS: R&D DY994 • STOP SOLUTION: from chemistry, or R&D DY999 • 1) Thawed samples to RT as needed. • 2) Added 50 μl Incubation buffer/well. • 3) Added 50 μl blood samples +50 μl Diluent buffer • 4) Incubated 2 hours at room temp. • 5) Washed the plate 4× with 300 μl/well wash buffer with microfill. Wash buffer was DPBS with 0.05% Tween pH 7.2-7.4 • 6) Added 100 μl biotinylated anti-TNFalpha • 7) Incubateed 1 hours at room temp. • 8) Washed the plate 4× with 300 μl/well wash buffer with microfill. Wash buffer was DPBS with 0.05% Tween pH 7.2-7.4 • 9) Added^100 μl Streptavidin-HRP working solution • 10) Incubated for 30 minutes at room temp. • 11) Washed the plate 4× with 300 μl/well wash buffer with microfill. Wash buffer was DPBS with 0.05% Tween pH 7.2-7.4 • 12) Added 100 μl Chromagen • 13) Incubated in the dark for 30 minutes until the blue color developed satisfactorily. • 14) Added 100 μl/well stop solution (2 N H2SO4). • 15) Read plate on WallacVictor at 450 nm for 0.1 sec/well

T1 sequence (Q07343 with tags, fused parts or gaps): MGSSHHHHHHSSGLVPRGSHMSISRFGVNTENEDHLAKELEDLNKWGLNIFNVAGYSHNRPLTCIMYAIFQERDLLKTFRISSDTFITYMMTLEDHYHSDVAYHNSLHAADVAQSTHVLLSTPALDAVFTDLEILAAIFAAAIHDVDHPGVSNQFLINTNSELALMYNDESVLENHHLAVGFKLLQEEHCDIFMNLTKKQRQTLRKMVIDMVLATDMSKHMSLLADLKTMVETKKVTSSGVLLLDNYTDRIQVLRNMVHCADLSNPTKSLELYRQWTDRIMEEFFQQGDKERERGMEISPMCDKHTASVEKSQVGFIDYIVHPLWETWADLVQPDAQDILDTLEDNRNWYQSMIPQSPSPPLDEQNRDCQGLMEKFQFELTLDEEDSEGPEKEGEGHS
T3 sequence (Q07343 1-564 isoform Q07343-2): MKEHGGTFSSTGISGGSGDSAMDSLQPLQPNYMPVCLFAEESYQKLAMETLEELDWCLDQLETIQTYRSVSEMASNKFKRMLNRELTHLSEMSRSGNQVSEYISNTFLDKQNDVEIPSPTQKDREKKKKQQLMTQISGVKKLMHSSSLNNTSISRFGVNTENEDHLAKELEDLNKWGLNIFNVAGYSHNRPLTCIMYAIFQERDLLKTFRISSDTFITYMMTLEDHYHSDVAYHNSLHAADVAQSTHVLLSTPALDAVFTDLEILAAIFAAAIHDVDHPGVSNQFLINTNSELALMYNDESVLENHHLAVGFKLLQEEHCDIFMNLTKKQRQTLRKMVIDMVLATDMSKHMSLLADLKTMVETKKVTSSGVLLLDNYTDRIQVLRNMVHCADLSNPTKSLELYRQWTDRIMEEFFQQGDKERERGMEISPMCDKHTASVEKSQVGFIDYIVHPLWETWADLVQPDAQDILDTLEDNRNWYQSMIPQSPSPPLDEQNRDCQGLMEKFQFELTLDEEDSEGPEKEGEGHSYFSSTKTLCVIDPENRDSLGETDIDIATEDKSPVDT
T4 sequence (Q08499 1-745 isoform Q08499-6): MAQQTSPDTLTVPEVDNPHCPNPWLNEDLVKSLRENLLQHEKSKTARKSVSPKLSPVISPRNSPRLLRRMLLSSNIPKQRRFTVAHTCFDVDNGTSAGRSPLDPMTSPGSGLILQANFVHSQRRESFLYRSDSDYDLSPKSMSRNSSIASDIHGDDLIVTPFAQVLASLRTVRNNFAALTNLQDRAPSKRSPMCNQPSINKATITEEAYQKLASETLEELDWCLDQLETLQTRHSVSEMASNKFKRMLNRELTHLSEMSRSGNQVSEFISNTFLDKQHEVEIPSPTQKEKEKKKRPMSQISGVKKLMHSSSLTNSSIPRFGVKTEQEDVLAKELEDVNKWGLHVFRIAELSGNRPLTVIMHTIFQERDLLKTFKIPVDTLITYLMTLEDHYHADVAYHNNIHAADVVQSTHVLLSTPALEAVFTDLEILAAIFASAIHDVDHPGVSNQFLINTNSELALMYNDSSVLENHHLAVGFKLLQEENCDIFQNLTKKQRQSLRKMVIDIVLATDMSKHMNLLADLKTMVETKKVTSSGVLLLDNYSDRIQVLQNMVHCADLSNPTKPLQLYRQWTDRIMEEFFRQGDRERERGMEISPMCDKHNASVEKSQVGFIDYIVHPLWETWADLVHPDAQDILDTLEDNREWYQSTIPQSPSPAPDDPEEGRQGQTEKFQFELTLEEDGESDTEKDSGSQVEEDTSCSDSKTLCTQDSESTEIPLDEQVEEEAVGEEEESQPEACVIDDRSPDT
T2 sequence (Q08499 380-756): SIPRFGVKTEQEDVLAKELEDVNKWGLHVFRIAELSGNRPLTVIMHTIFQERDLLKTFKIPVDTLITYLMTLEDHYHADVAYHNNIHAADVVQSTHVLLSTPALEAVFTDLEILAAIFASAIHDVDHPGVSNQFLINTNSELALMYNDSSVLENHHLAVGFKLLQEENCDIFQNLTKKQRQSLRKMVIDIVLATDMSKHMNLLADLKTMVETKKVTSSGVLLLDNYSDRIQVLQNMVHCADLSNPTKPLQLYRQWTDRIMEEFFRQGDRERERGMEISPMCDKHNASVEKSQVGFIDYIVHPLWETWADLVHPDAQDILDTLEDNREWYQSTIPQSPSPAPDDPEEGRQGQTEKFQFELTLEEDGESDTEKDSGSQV

Structure (SMILES) | IC50 [1] | IC50 [2] | IC50 [3] | IC50 [4] | IC50 [5]
N#Cc1c(NC2CCCC2)sc(C(=O)c2cc(-c3ccc([N+](=O)[O-])cc3)no2)c1N [Compound 1-220, 4-Amino-2-cyclopentylamino-5-[3-(4-nitro-phenyl)-isoxazole-5-carbonyl]-thiophene-3-carbonitrile] | < 10 µM | > 10 µM | < 10 µM | > 10 µM | > 10 µM
CCC(C)Nc1sc(C(=O)c2cc(-c3ccccc3)no2)c(N)c1C#N (stereo not shown) [Compound 1-222, 4-Amino-2-sec-butylamino-5-(3-phenyl-isoxazole-5-carbonyl)-thiophene-3-carbonitrile] | < 10 µM | < 10 µM | < 10 µM | > 10 µM | > 10 µM
CC(C)C(C)Nc1sc(C(=O)c2cc(-c3ccccc3)no2)c(N)c1C#N (stereo not shown) [Compound 1-223, 4-Amino-2-(1,2-dimethyl-propylamino)-5-(3-phenyl-isoxazoie-5-carbonyl)-thiophene-3-carbonitrile] | < 10 µM | > 10 µM | < 10 µM | > 10 µM | > 10 µM
CC(C)Nc1sc(C(=O)c2cc(-c3ccc(Cl)c(Cl)c3)no2)c(N)c1C#N [Compound 1-225] | < 10 µM | > 10 µM | < 10 µM | > 10 µM | > 10 µM
CCC(C)Nc1sc(C(=O)c2cc(-c3ccccc3)no2)c(N)c1C(N)=O (stereo not shown) [Compound 1-244, 4-Amino-2-sec-butylamino-5-(3-phenyl-isoxazole-5-carbonyl)-thiophene-3-carboxylic acid amide] | < 10 µM | < 10 µM | < 10 µM | < 10 µM | < 10 µM
CC(C)CNc1sc(C(=O)c2cc(-c3ccc(Cl)c(Cl)c3)no2)c(N)c1C(N)=O [Compound 1-245, 4-Amino-5-[3-(3,4-dichloro-phenyl)-isoxazole-5-carbonyl]-2-isobutylamino-thiophene-3-carboxylic acid amide] | < 10 µM | < 10 µM | < 10 µM | < 10 µM | < 10 µM
CCC(C)Nc1sc(C(=O)c2cc(-c3ccc(Cl)c(Cl)c3)no2)c(N)c1C#N (stereo not shown) [Compound 1-247, 4-Amino-2-sec-butylamino-5-[3-(3,4-dichloro-phenyl)-isoxazole-5-carbonyl]-thiophene-3-carbonitrile] | < 10 µM | > 10 µM | < 10 µM | > 10 µM | > 10 µM
N#Cc1c(NC2CCCC2)sc(C(=O)c2cc(-c3ccc(N)cc3)no2)c1N [Compound 1-250, 4-Amino-5-[3-(4-amino-phenyl)-isoxazole-5-carbonyl]-2-cyclopentylamino-thiophene-3-carbonitrile] | < 10 µM | < 10 µM | < 10 µM | < 10 µM | > 10 µM
Cc1nc(-c2cnccn2)sc1C(=O)c1sc(NC2CCCC2)c(C(N)=O)c1N [Compound 1-252, 4-Amino-2-cyclopentylamino-5-(4-methyl-2-pyrazin-2-yl-thiazole-5-carbonyl)-thiophene-3-carboxylic acid amide] | < 10 µM | < 10 µM | < 10 µM | < 10 µM | > 10 µM
NC(=O)c1c(NC2CCCC2)sc(C(=O)c2cc(-c3ccc(N)cc3)no2)c1N [Compound 1-253, 4-Amino-5-[3-(4-amino-phenyl)-isoxazole-5-carbonyl]-2-cyclopentylamino-thiophene-3-carboxylic acid amide] | < 10 µM | < 10 µM | < 10 µM | < 10 µM | > 10 µM
CC(C)CNc1sc(C(=O)c2cc(-c3ccc(N)cc3)no2)c(N)c1C(N)=O [Compound 1-254, 4-Amino-5-[3-(4-amino-phenyl)-isoxazole-5-carbonyl]-2-isobutylamino-thiophene-3-carboxylic acid amide] | < 10 µM | < 10 µM | < 10 µM | < 10 µM | < 10 µM
